Experimental data from ChEMBL document CHEMBL5233227, “Allosteric inhibitors of the STAT3 signaling pathway” (Eur J Med Chem, 2020).

Target: Signal transducer and activator of transcription 3 (Homo sapiens, UniProt P40763)
Experiment: Inhibition of human STAT3 expressed in human HepG2 cells incubated for 1.5 hrs by luciferase assay
Assay type: cell-based

Sequence of Signal transducer and activator of transcription 3 (P40763 whole entry): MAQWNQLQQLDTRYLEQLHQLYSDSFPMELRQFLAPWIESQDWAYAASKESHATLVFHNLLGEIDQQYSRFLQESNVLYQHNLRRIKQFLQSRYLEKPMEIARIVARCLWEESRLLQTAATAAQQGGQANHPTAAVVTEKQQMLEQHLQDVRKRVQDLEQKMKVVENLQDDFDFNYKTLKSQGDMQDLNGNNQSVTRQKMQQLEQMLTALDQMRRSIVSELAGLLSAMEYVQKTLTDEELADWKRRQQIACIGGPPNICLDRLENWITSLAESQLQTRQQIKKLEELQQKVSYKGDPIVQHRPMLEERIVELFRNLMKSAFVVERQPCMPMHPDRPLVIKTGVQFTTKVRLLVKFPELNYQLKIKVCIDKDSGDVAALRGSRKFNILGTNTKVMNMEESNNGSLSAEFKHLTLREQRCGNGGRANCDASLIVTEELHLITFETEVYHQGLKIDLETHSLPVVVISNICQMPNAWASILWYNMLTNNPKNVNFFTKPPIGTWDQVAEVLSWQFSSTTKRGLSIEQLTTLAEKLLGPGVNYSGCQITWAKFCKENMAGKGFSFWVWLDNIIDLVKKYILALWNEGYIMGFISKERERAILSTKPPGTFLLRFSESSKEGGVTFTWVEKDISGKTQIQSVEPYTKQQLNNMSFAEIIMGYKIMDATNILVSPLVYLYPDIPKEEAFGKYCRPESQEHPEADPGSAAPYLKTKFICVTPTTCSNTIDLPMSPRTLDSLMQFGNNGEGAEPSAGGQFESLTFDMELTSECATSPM

CC(CO)C1OC(=O)C=C2C13OC3CC13COC(=O)C1(C)CC(O)CC23C (stereo unspecified)
IC50: 200 nM
